Test results published in ChEMBL document CHEMBL1777666 (Bioorg Med Chem Lett, 2009).

Tests used:
[1] = Inhibition of human recombinant aldose reductase 2 expressed in Escherichia coli BL21 after 10 mins by spectrophotometry analysis
[2] = molecular target: Aldehyde reductase AKR1A1 (Homo sapiens); assay: Inhibition of human recombinant aldehyde reductase after 10 mins by spectrophotometry analysis

IC50 [1] [nM] | IC50 [2] [nM] | SMILES
7 |  | O=C(O)Cn1cc(Cc2nc3c(F)c(F)cc(F)c3s2)c2cccnc21
8 | > 100000 | Cc1ccc2c(Cc3nc4c(F)c(F)cc(F)c4s3)cn(CC(=O)O)c2n1
12 |  | CCc1ccc2c(Cc3nc4c(F)c(F)cc(F)c4s3)cn(CC(=O)O)c2n1
5 |  | O=C(O)Cn1cc(Cc2nc3c(F)c(F)cc(F)c3s2)c2ccccc21 [LIDORESTAT]
